What was measured:
[1] = test system: c-kit D816V mutant Ba/F3 cell line; assay: Annexin V-PI FACS apoptosis analysis, c-kit D816V Ba/F3; format: cell-based; settings: 0.1, 1 and 10 μM, 24 hours, FIG. 3
Experimental: Specifically, the c-kit D816V mutant Ba/F3 cell line was adjusted to a concentration of 1×10^6 cells/ml and treated with each of PHI-101 at concentrations of 0.1, 1 and 10 μM and the control compound sunitinib at concentrations of 1 and 10 μM for 24 hours. Thereafter, the medium was removed and the cells were washed once with 1 ml PBS. The PBS was removed by centrifugation at 1,000 rpm for 5 minutes. The cells were dissolved in 100 μl of PBS containing Ca^2+ and Mg^2+ and allowed to react with 5 μl of Annexin V for 20 minutes. After completion of the reaction, 400 μl of PBS containing Ca^2+ and Mg^2+ was added, and 5 μl of propidium iodide (PI) was added, and then the degree of apoptotic cell death was analyzed by FACS (fluorescence activated cell sorter) assay using a flow cytometer (FACS-C6, BD).

[2] = test system: c-kit phosphorylation and downstream signaling (p-STAT5, p-AKT, p-ERK) in HMC-1.2 cell line; assay: Western blot of c-kit phosphorylation and downstream signaling in HMC-1.2; format: cell-based; settings: FIG. 6
Experimental: Specifically, the c-kit D816V mutant Ba/F3 cell line was dispensed at a concentration of 1×10^6 cells/ml, treated with each of the control compounds and PHI-101 at concentrations of 0.1, 1 and 10 μM, and then cultured for 2 hours. Next, lysates of the cells were obtained using lysis buffer (50 mM Tris-HCl pH 7.5, 1% NP40, 1 mM EDTA, 150 mM NaCl, 5 mM, Na3VO4 and 2.5 mM NaF, and a protease inhibitor cocktail). Equal amounts of the cell lysates were electrophoresed using 8% SDS-PAGE gel at 100 V for 1 hour and 30 minutes, and the separated protein was electrically transferred to nitrocellulose membranes. The membranes were blocked with 5% skim milk at room temperature for 30 minutes, and allowed to react with primary antibodies (diluted 1:5,000), including p-c-kit tyrosine 719 (Y719), p-STAT3 tyrosine 705 (Y705) and p-ERK1/2 threonine 202/tyrosine 204 (T202/Y204) at 4° C. for 16 to 20 hours. […] Next, the membranes were washed three times with TBST for 5 minutes each time and treated with a chemiluminescent substrate reagent, and the expression level of the protein was measured by detecting luminescence with an X-ray film in the dark.
The inhibitory activities of control compounds and PHI-101 against c-kit phosphorylation and downstream signaling (p-STAT5, p-AKT, p-ERK) in a mastocytosis cell line were measured, and as the control compounds, imatinib and sunitinib were used. […]

[3] = test system: c-kit D816V mutant Ba/F3 cell line; assay: Cell cycle FACS assay, c-kit D816V Ba/F3; format: cell-based; settings: 1 μM, 24 hours, FIGS. 4 and 5
Experimental: The c-kit D816V mutant Ba/F3 cell line was treated with 1 μM of PHI-101, and then the SubG1/GO-1 population was analyzed by cell cycle FACS assay.
Specifically, the c-kit D816V mutant Ba/F3 cell line was adjusted to a concentration of 1×10^6 cells/ml and treated with each of PHI-101 and the control compound sunitinib at a concentration of 1 μM for 24 hours. Thereafter, the medium was removed, and the c-kit D816V mutant Ba/F3 cell line was fixed in 70% ethanol at 4° C. for 24 hours, and then incubated in a PBS buffer solution containing 40 μg/ml of propidium iodide (PI) and 100 μg/ml of RNase for 30 minutes to completely stain the total DNA. Cell cycle analysis of the stained cells was performed using a flow cytometer (FACS-C6, BD). The proportion of cells in G0/G1 phase, S phase and G2/M phase was measured, and based on the measurement results, the SubG1/G0-1 population was determined.

[4] = test system: HMC-1.2 cells subcutaneous tumor; assay: Tumor growth inhibition in mastocytosis mouse model with HMC-1.2 cell line; format: in vivo, NOD SCID female mice
Experimental: As mice, 6-8-week-old NOD SCID female mice (18 to 22 g) (GemPharmatech Co., Ltd.) were prepared. Mice were acclimatized for 7 days before use in the experiment, and mice with abnormal health were excluded from the experiment. Mice were bred in a cage (300×180×150 mm) at a 22±3° C. and a relative humidity of 40% to 70% with a 12-hr light/12-hr dark cycle. Mice were allowed access to sterilized dry granular food (Beijing Keaoxieli Feed Co., Ltd., Beijing, China) and water ad libitum for the entire experimental period except for the period specified in the protocol.
50 ml of HMC-1.2 cells suspension-cultured in a 75T flask were placed in a conical tube and centrifuged at 1,200 rpm for 2 minutes, centrifuged with DPBS (Dulbecco's Phosphate-Buffered Saline, Welgene) at 1,200 rpm for 2 minutes, washed, and then suspended in RPMI1640 (Welgene) without antibiotics and fetal bovine serum (FBS).
Thereafter, when the average tumor volume reached 150 to 200 mm^3, 4 mice were assigned to each group so that the average tumor volume at each group and treatment time was the same between the groups.
In addition, the width and length of the tumor were measured using a caliper at 3-day intervals, and the tumor volume was calculated using the following equation.
(V: tumor volume, W: tumor width, and L: tumor length)
In addition, the mice were sacrificed 3 weeks after the start of oral administration of each drug and the tumor weight was measured using a digital scale. For each data, one-way ANOVA was used to test the significance of each group.

[5] = 7 mg/kg oral once daily for 3 weeks
[6] = 20 mg/kg oral once daily for 3 weeks
[7] = 40 mg/kg oral once daily for 3 weeks
[8] = 80 mg/kg oral once daily for 3 weeks

## NC(=O)Nc1cc(C#Cc2cccc(F)c2)sc1C(=O)N[C@H]1CCCNC1 [PHI-101]
[1]
  apoptosis induction (Annexin V-PI FACS): strongly induced apoptosis even at a concentration of 0.1 μM
[2]; 0.1 μM
  downstream signaling inhibition: strongly inhibited downstream signaling
[2]; 0.01, 0.1 and 1 μM
  c-kit phosphorylation and downstream signaling: decreased c-kit phosphorylation and downstream signaling in a concentration-dependent manner
[3]
  SubG1/G0-1 population (cell cycle progression): SubG1/G0-1 population was increased
[4]; [5]
  Tumor growth inhibition (TGI) (%) Timor volume: 30.2%
  Tumor growth inhibition (TGI) (%) Tumor weight: 32.7%
[4]; [6]
  Tumor growth inhibition (TGI) (%) Timor volume: 43.6%
  Tumor growth inhibition (TGI) (%) Tumor weight: 51.6%
[4]; 40 mg/kg or more, versus control compounds, FIGS. 9 to 12
  growth of mastocytosis cells in mouse model: significantly inhibited compared to that in the group treated with each control compound
[4]; [7]
  Tumor growth inhibition (TGI) (%) Timor volume: 68.4%
  Tumor growth inhibition (TGI) (%) Tumor weight: 68.3%
[4]; [8]
  Tumor growth inhibition (TGI) (%) Timor volume: 78.5%
  Tumor growth inhibition (TGI) (%) Tumor weight: 82.7%

From patent US20230263792A1, “USE OF 2,3,5-SUBSTITUTED THIOPHENE COMPOUND FOR PREVENTING, ALLEVIATION, OR TREATING MASTOCYTOSIS” (PHAROS IBIO CO., LTD, priority 2020, published 2023)
